Test results reported in patent EP2650284A1, “Heterocyclic derivatives as metabotropic glutamate receptor modulators” (Merz Pharma GmbH & Co. KGaA, priority 2012, dated 2013).

Key:
[1] = biological target: T1, human metabotropic glutamate receptor mGluR5 (Homo sapiens, UniProt P41594); test: Cytosolic calcium studies with stably transfected cells (h5CHO), functional assay of mGluR5 receptors; type: cell-based; settings: for h left shift / EC50: Table A1; for h left shift: left shift of agonist EC50, dose response curves in the presence of 10 µM modulator or vehicle; for h left shift / IC50: h5CHO cells; for EC50: positive modulators, h5CHO cells preincubated with modulator, stimulated by an EC20 concentration of L-glutamate, read-out: hEC50; for IC50: Table A2, negative modulation, compounds added 5 minutes before L-quisqualic acid (~80% of the maximal signal), read-out: hIC50
T1 construct: expressed in transfected cells; host or cells: CHO-K1 (h5CHO), IPTG-inducible
T1 sequence (P41594 21-1212): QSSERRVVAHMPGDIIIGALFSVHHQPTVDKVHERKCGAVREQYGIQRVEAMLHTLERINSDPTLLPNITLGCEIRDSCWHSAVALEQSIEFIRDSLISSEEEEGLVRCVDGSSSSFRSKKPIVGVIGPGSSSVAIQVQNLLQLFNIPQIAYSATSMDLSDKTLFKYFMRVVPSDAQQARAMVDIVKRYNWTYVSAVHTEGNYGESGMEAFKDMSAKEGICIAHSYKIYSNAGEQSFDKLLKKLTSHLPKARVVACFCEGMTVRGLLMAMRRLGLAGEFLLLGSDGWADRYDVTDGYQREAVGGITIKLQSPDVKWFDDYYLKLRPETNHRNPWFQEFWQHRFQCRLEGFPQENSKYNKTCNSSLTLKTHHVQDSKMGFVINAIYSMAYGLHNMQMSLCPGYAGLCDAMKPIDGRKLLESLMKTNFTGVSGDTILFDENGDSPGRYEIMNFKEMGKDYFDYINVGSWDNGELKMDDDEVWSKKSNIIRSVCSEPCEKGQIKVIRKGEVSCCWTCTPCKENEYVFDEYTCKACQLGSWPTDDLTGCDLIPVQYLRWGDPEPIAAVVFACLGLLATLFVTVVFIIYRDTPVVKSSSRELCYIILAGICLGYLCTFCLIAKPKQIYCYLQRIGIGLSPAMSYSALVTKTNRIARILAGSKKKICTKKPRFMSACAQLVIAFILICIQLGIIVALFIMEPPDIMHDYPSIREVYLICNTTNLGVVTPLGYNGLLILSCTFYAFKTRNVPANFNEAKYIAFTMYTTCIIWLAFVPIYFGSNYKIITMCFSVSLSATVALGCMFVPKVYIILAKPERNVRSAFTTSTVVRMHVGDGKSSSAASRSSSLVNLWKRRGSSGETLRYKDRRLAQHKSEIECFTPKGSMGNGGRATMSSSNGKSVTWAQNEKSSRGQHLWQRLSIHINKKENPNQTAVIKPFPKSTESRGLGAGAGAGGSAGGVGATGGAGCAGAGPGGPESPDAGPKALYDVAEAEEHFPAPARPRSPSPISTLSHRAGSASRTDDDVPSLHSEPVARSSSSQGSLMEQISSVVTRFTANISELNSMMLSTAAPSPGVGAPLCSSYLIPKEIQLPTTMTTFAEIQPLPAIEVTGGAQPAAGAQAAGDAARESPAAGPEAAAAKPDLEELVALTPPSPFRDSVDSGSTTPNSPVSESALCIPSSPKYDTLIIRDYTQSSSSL
Outline: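 IPTG-induced h5CHO (CHO-K1 expressing human mGluR5) loaded with calcium dye; compounds (0.5% DMSO) added 5 min before agonist. NAM IC50 against L-quisqualate at ~EC80; PAM EC50 with EC20 L-glutamate. FLIPR fluorescence, max-minus-min, % of maximal response, logistic fit.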

mGluR5 receptors = biological target: T2, mGluR5 receptors (Rattus norvegicus, UniProt P31424); test: Cytosolic calcium studies with astrocytes (FLIPR), functional assay of mGluR5 receptors; type: cell-based; settings: for r left shift: Table A1, left shift of quisqualate EC50 in the presence and absence of 10 µM modulator; for EC50: Table A1, positive modulators, fixed concentration of quisqualate (normally 10-30 nM), read-out: rEC50; for IC50: Table A2, pre-incubated 10 minutes before L-quisqualate (100 nM), read-out: rIC50
T2 construct: Primary astrocyte cultures are prepared from cortices of newborn rats; endogenous in cells; host or cells: primary cortical astrocytes from Sprague-Dawley rat pups (2-4 d old)
T2 sequence (P31424 21-1203): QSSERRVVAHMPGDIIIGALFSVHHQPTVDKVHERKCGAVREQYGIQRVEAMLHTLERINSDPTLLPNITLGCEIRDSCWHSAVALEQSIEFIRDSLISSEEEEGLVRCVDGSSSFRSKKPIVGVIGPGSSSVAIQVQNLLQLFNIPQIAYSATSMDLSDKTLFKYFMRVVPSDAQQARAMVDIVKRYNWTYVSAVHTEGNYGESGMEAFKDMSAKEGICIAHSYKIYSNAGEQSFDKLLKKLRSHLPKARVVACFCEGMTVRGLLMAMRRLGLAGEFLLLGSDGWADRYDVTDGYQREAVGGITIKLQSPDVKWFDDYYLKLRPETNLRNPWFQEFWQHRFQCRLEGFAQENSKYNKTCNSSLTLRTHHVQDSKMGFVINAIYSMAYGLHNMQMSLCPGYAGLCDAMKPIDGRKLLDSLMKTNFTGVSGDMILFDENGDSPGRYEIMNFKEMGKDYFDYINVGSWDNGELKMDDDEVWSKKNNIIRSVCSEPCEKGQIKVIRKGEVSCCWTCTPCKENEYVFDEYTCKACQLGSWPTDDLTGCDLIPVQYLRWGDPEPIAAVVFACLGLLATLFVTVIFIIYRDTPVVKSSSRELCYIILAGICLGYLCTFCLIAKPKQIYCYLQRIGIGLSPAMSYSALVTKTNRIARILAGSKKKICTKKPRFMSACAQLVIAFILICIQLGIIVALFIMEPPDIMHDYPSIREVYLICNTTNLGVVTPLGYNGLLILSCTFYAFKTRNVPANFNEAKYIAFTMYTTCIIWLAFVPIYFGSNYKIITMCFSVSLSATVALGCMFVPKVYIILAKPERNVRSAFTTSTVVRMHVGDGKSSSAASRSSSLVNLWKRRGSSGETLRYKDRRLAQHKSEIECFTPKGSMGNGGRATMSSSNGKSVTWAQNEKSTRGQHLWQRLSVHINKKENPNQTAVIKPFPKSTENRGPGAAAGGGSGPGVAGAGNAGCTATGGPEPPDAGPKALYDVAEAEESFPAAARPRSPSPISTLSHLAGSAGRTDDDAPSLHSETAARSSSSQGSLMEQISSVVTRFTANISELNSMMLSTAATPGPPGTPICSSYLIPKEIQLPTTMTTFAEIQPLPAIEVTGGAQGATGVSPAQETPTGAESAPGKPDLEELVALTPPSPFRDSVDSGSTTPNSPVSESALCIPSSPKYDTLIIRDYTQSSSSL
Experimental: Primary astrocyte cultures are prepared from cortices of newborn rats as described by Booher and Sensenbrenner (1972, Neurobiology 2(3):97-105). Briefly, Sprague-Dawley rat pups (2 - 4 d old) are decapitated and neocortices are dissected, disintegrated with a nylon filter (pore size 80 µm) and carefully triturated. The cell suspension is plated on poly-D-lysine pre-coated flasks (Costar, Netherlands) and cultivated in Dulbecco's Modified Eagle's Medium (DMEM, Invitrogen, Germany) supplemented with 10% foetal calf serum (FCS, Sigma, Germany), 4 mM glutamine and 50 µg/ml gentamycin (both Biochrom, Germany) at 37°C in a humidified atmosphere of 5% CO2/ 95% air for 7 days with exchanging the medium at day 2 and 6.
After 7 days in vitro (DIV), cells are shaken overnight at 250 rpm to remove oligodendrocytes and microglia. The next day, astrocytes are rinsed twice with CMF-PBS (calcium- and magnesium-free phosphate buffered saline, Biochrom, Germany), trypsinized and subplated on poly-D-lysine pre-coated 96-well plates (Greiner, Germany) at a density of 40,000 cells/well. 24 h after establishing the secondary culture the astrocytes are rinsed with PBS^++ (phosphate buffered saline, Biochrom, Germany) and fed with astrocyte-defined medium (ADM) consisting of DMEM containing 1x G5-supplement (Invitrogen, Germany), 0.5 µg/ml heparan sulfate, and 1.5 µg/ml fibronectin (both Sigma, Germany) (Miller et al., (1993) Brain Res. 618(1):175-8). 3 days later the medium is exchanged and the cells incubated for another 2-3 days, so that at the time of experiments astrocytes are 14-15 DIV.
The increase of cytosolic calcium after stimulation with the mGluR5 agonist L-quisqualate is measured using a fluorometric imaging plate reader (FLIPR) and the Ca-Kit (both Molecular Devices). Prior to addition of agonist or antagonist the medium is aspirated and cells are loaded for 2 h at RT with 150 µl of loading buffer consisting of Ca-sensitive dye reconstituted in sodium chloride (123 mM), potassium chloride (5.4 mM), magnesium chloride (0.8 mM), calcium chloride (1.8 mM), D-glucose (15 mM), and HEPES (20 mM), pH 7.3. Subsequently, plates are transferred to FLIPR to detect calcium increase with the addition of L-quisqualate (100 nM) measured as relative fluorescence units (RFU). If antagonists are tested, these compounds are pre-incubated for 10 minutes at RT before addition of the respective agonist.
For positive modulators, concentration-response curves for quisqualate are performed in the presence and absence of 10 µM modulator to determine the extent of potentiation / agonist potency increase. Thereafter, concentration-response curves for the positive modulator are performed in the presence of a fixed concentration of quisqualate showing the biggest window for potentiation (normally 10-30 nM).
The fluorescence signal increase after addition of agonist reflects the increase of cytosolic calcium. Inconsistencies in the amount of cells per well are normalised by using the spatial uniformity correction of the FLIPR operating software Screenworks. The mean of replicated temporal data (n=3-5) is calculated and used for graphical representation. For the evaluation of the pharmacology, the calcium changes in response to different concentrations of agonist or antagonist are determined using a maximum minus minimum (MaxMin) calculation.
All responses (RFU-values) are determined as percentage of control (= maximum response). EC50 and IC50 are calculated according the logistic equation using XLFit (IDBS, UK) or Prism 4.0 (GraphPad Software, USA). The compounds of the present invention have a potency (EC50 or IC50) within a range of about 0.5 nM to about 100 µM. The left shifts for positive or slient allosteric modulators (PAMs or SAMs, respectively) are determined by comparison of EC50 values from agonist dose response curves run in the presence of 10 µM modulator or vehicle (Vanejevs et al., J. Med. Chem., 2008, 51, 634-647).

| SMILES | h left shift [1] | r left shift (mGluR5 receptors) | EC50 (mGluR5 receptors) [nM] | EC50 [1] [nM] | IC50 [1] [nM] | IC50 (mGluR5 receptors) [nM] |
| --- | --- | --- | --- | --- | --- | --- |
| O=S(=O)(C1CC1)N1CCc2ncc(C#Cc3ccccc3)cc2C1 [Example 38, 6-(Cyclopropylsulfonyl)-3-(phenylethynyl)-5,6,7,8-tetrahydro-1,6-naphthyridine] | 1.7-fold | 2.5-fold | 481 |  |  |  |
| CC(C)COC(=O)N1CCc2ncc(C#Cc3ccccc3)cc2C1 [Example 41, Isobutyl 3-(phenylethynyl)-7,8-dihydro-1,6-naphthyridine-6(5H)-carboxylate] | 2.2-fold | 1.2-fold | 4.36 | 146 |  |  |
| CC(C)(C)OC(=O)N1CCc2ncc(C#Cc3ccccc3)cc2C1 [Example 42, tert-Butyl 3-(phenylethynyl)-7,8-dihydro-1,6-naphthyridine-6(5H)-carboxylate] | 3.1-fold | 1.9-fold | 131 | 281 |  |  |
| O=C(Oc1ccccc1)N1CCc2ncc(C#Cc3ccccc3)cc2C1 [Example 43, Phenyl 3-(phenylethynyl)-7,8-dihydro-1,6-naphthyridine-6(5H)-carboxylate] | 2.4-fold |  | 38 | 381 |  |  |
| O=C(N1CCc2ncc(C#Cc3ccccc3)cc2C1)N(CC(F)(F)F)CC(F)(F)F [Example 49, 3-(Phenylethynyl)-N,N-bis(2,2,2-trifluoroethyl)-7,8-dihydro-1,6-naphthyridine-6(5H)-carboxamide] | 1.7-fold | 2.3-fold | 11.8 |  |  |  |
| CN(C)S(=O)(=O)N1CCc2ncc(C#Cc3ccccc3)cc2C1 [Example 52, N,N-Dimethyl-3-(phenylethynyl)-7,8-dihydro-1,6-naphthyridine-6(5H)-sulfonamide] | 2.0-fold | 1.8-fold | 83.1 | 240 |  |  |
| O=S(=O)(N1CCCC1)N1CCc2ncc(C#Cc3ccccc3)cc2C1 [Example 53, 3-(Phenylethynyl)-6-(pyrrolidin-1-ylsulfonyl)-5,6,7,8-tetrahydro-1,6-naphthyridine] | 1.6-fold | 2.8-fold | 152 |  |  |  |
| O=S(=O)(N1CCOCC1)N1CCc2ncc(C#Cc3ccccc3)cc2C1 [Example 55, 4-((3-(Phenylethynyl)-7,8-dihydro-1,6-naphthyridin-6(5H)-yl)sulfonyl)morpholine] | 2.7-fold | 3.8-fold | 325 | 440 |  |  |

The next lines start with the values.

| h left shift [1] | r left shift (mGluR5 receptors) | EC50 (mGluR5 receptors) [nM] | EC50 [1] [nM] | IC50 [1] [nM] | IC50 (mGluR5 receptors) [nM] | SMILES |
| --- | --- | --- | --- | --- | --- | --- |
|  |  |  |  | 114 | 55.9 | CN(C)C(=O)N1CCc2ncc(C#Cc3cccc(F)c3)cc2C1 [Example 45, 3-((3-Fluorophenyl)ethynyl)-N,N-dimethyl-7,8-dihydro-1,6-naphthyridine-6(5H)-carboxamide] |
|  |  |  |  | 50.8 | 20.8 | CN(C)C(=O)N1CCc2ncc(C#Cc3cccc(C#N)c3)cc2C1 [Example 46, 3-((3-Cyanophenyl)ethynyl)-N,N-dimethyl-7,8-dihydro-1,6-naphthyridine-6(5H)-carboxamide] |
| 2.1-fold | 1.9-fold |  | 843 |  |  | O=C(N1CCCCC1)N1CCc2ncc(C#Cc3ccccc3)cc2C1 [Example 50, (3-(Phenylethynyl)-7,8-dihydro-1,6-naphthyridin-6(5H)-yl)(piperidin-1-yl)methanone] |
|  |  |  |  | 740 | 2330 | N#Cc1cccc(C#Cc2cnc3c(c2)CN(C(=O)N2CCCCC2)CC3)c1 [Example 51, 3-((6-(Piperidine-1-carbonyl)-5,6,7,8-tetrahydro-1,6-naphthyridin-3-yl)ethynyl)benzonitrile] |
| 2.0-fold | 2.5-fold | 472 | 726 |  |  | O=S(=O)(N1CCCCC1)N1CCc2ncc(C#Cc3ccccc3)cc2C1 [Example 54, 3-(Phenylethynyl)-6-(piperidin-1-ylsulfonyl)-5,6,7,8-tetrahydro-1,6-naphthyridine] |
